According to patent US20030229112A1, “Combination therapy for cancer” (priority 2000, published 2003):

Key:
NB-1382 xenografts = assay: Schedule dependence of temozolomide against NB-1382 xenografts; assay type: in vivo, mice
Experimental: It has been have shown that the antitumor activity of camptothecins is highly schedule dependent. […] The total dose per cycle was constant. […] In this experiment mice received a cumulative dose of 210 mg/kg per cycle.

NB-1771 tumors = assay: Combination study against NB-1771 xenografts; assay type: in vivo, mice
Source text: It has been have shown that the antitumor activity of camptothecins is highly schedule dependent. […] To determine whether there was similar schedule-dependency for temozolomide, the antitumor activity of this agent was examined when given daily for 5 days, 2×5 days per 21 day cycle or 3×5 days per 28 day cycle. See, as incorporated by reference, Houghton, P. J. et al., Clinical Cancer Res. Vol. 6, 4110-4118, October 2000. The total dose per cycle was constant. […] In this experiment mice received a cumulative dose of 210 mg/kg per cycle. Mice received 3 cycles of treatment (total cumulative dose was 630 mg/kg).

in vivo = conditions: mouse
[1] = test system: NB-SD neuroblastoma xenografts; assay: Combination study against NB-SD neuroblastoma xenografts; assay type: in vivo, mice
Rh18 rhabdomyosarcoma = assay: Combination study against Rh18 rhabdomyosarcoma xenografts; assay type: in vivo, mice
advanced melanoma = conditions: cited from earlier work
[2] = test system: five other xenograft lines; assay: Schedule dependence of temozolomide in five other xenograft lines; assay type: in vivo, mice
Experimental: To determine whether there was similar schedule-dependency for temozolomide, the antitumor activity of this agent was examined when given daily for 5 days, 2×5 days per 21 day cycle or 3×5 days per 28 day cycle. […] The total dose per cycle was constant. […] In this experiment mice received a cumulative dose of 210 mg/kg per cycle. Mice received 3 cycles of treatment (total cumulative dose was 630 mg/kg).

[3] = test system: glioblastoma line, SJ-GBM2
Experimental: To determine whether there was similar schedule-dependency for temozolomide, the antitumor activity of this agent was examined when given daily for 5 days, 2×5 days per 21 day cycle or 3×5 days per 28 day cycle. […] The total dose per cycle was constant. […] Mice received 3 cycles of treatment (total cumulative dose was 630 mg/kg).

[4] = same total dose given over 10 days versus over 5 days or as a single administration; cited from earlier work
[5] = irinotecan, SN-38 and APC, following administration

## Cn1nnc2c(C(N)=O)ncn2c1=O [temozolomide, 3,4-dihydro-3-methyl-4-oxoimidazo-[5,1-d]1,2,3,4-tetrazin-8-carboximide]
NB-1382 xenografts; lower doses given over more protracted periods (2x5 days per 21 day cycle, 3x5 days per 28 day cycle), same total dose per cycle
  tumor response: progressively less effective
NB-1382 xenografts; temozolomide given over 5 days, 42 mg/kg/dose, 210 mg/kg per cycle, 3 cycles
  tumor response: CRs were achieved in all mice, and were maintained at week 12
NB-1771 tumors; temozolomide as a single agent
  sensitivity of tumors to single agent: relatively sensitive
In vivo
  AUC(0-inf): 47000 ng·h/mL
  Cmax: 36000 ng/mL
  Tmax: 30 min
[1]; temozolomide alone at tolerated dose levels
  tumor response: little activity
Rh18 rhabdomyosarcoma; temozolomide as a single agent
  sensitivity of xenograft to single agent: poorly sensitive
Advanced melanoma; patients having advanced melanoma, Newlands et al., Br. J Cancer 1992
  clinical responses, % of patients: 17%
Advanced melanoma; patients with advanced melanoma, Journal of Clinical Oncology 1995
  clinical response, % of patients: 21%
[2]; all experiments
  activity of most intensive schedule (daily for 5 consecutive days per cycle) compared to the other schedules: either more active or equally active
[2]; five other xenograft lines (data not shown)
  schedule-dependent antitumor activity: Far less schedule-dependent antitumor activity
[3]; temozolomide alone at 42 mg/kg, tumor volume at end of treatment similar to initiation
  overall effect of treatment: stasis
[3]; temozolomide alone at 66 or 42 mg/kg, during the 8 weeks of treatment
  tumor response: some PRs, and an occasional CR
[3]; temozolomide alone, higher dose level (66 mg/kg)
  toxicity: lethal during cycle 3 of treatment

## CCc1c2c(nc3ccc(OC(=O)N4CCC(N5CCCCC5)CC4)cc13)-c1cc3c(c(=O)n1C2)COC(=O)[C@]3(O)CC [irinotecan, 7-ethyl-10-(4-[1-piperidino)-1-piperidino]-carbonyloxy-camptothecin]
NB-1771 tumors; CPT-11 alone at 0.61 mg/kg
  tumor response: an occasional CR
NB-1771 tumors; CPT-11 alone at 1.25 or 0.61 mg/kg
  tumor status at week 12: all tumors had progressed
[4]
  antitumor activity by schedule: significantly more active
In vivo
  AUC(0-inf): 1820 ng·h/mL
  Cmax: 1240 ng/mL
  Tmax: 30 min
[1]; CPT-11 alone at 0.4 mg/kg
  tumor response: tumors progressed
Rh18 rhabdomyosarcoma; CPT-11 alone at the doses used in the combination
  tumor response: few CRs

## CCc1c2c(nc3ccc(OC(=O)N4CCC(NCCCCC(=O)O)CC4)cc13)-c1cc3c(c(=O)n1C2)COC(=O)[C@]3(O)CC [APC]
[5]
  apparent tmax: 60 min

## CCc1c2c(nc3ccc(O)cc13)-c1cc3c(c(=O)n1C2)COC(=O)[C@]3(O)CC [SN-38]
[5]
  apparent tmax: 15 min
